Three molecules from ChEMBL document CHEMBL3124838, “Discovery of 6-aryl-azabenzimidazoles that inhibit the TBK1/IKK-ε kinases” (Bioorg Med Chem Lett, 2014) can be followed below.

Test [1] addresses Casein kinase II subunit alpha' (Homo sapiens) (UniProt P19784). The experiment in a line: Inhibition of human CK2-alpha2 assessed as residual activity at 1 uM relative to control.
For test [2], the target named is Phosphatidylinositol 4,5-bisphosphate 3-kinase catalytic subunit gamma isoform (Homo sapiens) (UniProt P48736). Description: Inhibition of human PI3K p120gamma assessed as residual activity at 1 uM relative to control.
Test [3] deals with Calcium/calmodulin-dependent protein kinase type 1 (Homo sapiens) (UniProt Q14012). Description: Inhibition of human CaMK1 assessed as residual activity at 1 uM relative to control.
In test [4] the target is Phosphatidylinositol 4-phosphate 5-kinase type-1 alpha (Homo sapiens) (UniProt Q99755). Description: Inhibition of human PIP5K1alpha assessed as residual activity at 1 uM relative to control.
For test [5], the target named is Macrophage-stimulating protein receptor (Homo sapiens) (UniProt Q04912). Description: Inhibition of human RON assessed as residual activity at 1 uM relative to control.
The target in test [6] is Myosin light chain kinase, smooth muscle (Homo sapiens) (UniProt Q15746). The experiment in a line: Inhibition of human MLCK assessed as residual activity at 1 uM relative to control.
Test [7] addresses 5'-AMP-activated protein kinase catalytic subunit alpha-2 (Homo sapiens) (UniProt P54646). The experiment in a line: Inhibition of human AMPKalpha2 assessed as residual activity at 1 uM relative to control.
The target in test [8] is T1, Interleukin-1 receptor-associated kinase 4 (Homo sapiens) (UniProt Q9NWZ3).
T1 sequence (whole entry): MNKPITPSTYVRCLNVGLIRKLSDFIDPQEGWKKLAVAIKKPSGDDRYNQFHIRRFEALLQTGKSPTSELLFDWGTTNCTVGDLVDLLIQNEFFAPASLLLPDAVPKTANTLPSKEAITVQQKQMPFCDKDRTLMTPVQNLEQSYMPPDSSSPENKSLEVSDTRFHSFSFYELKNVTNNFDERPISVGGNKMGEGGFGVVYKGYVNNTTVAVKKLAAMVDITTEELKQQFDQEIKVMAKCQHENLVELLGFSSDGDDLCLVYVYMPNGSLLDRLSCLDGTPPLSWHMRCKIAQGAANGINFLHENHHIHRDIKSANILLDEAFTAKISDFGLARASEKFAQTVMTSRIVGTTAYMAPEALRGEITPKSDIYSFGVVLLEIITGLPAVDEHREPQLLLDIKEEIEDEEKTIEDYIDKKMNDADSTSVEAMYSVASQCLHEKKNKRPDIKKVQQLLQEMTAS
The experiment in a line: Inhibition of human IRAK4 assessed as residual activity at 1 uM relative to control.

Test [9] concerns the target ALK tyrosine kinase receptor (Homo sapiens) (UniProt Q9UM73). Description: Inhibition of human ALK assessed as residual activity at 1 uM relative to control.
For test [10], the target named is T2, Protein kinase C epsilon type (Homo sapiens) (UniProt Q02156).
T2 sequence (whole entry): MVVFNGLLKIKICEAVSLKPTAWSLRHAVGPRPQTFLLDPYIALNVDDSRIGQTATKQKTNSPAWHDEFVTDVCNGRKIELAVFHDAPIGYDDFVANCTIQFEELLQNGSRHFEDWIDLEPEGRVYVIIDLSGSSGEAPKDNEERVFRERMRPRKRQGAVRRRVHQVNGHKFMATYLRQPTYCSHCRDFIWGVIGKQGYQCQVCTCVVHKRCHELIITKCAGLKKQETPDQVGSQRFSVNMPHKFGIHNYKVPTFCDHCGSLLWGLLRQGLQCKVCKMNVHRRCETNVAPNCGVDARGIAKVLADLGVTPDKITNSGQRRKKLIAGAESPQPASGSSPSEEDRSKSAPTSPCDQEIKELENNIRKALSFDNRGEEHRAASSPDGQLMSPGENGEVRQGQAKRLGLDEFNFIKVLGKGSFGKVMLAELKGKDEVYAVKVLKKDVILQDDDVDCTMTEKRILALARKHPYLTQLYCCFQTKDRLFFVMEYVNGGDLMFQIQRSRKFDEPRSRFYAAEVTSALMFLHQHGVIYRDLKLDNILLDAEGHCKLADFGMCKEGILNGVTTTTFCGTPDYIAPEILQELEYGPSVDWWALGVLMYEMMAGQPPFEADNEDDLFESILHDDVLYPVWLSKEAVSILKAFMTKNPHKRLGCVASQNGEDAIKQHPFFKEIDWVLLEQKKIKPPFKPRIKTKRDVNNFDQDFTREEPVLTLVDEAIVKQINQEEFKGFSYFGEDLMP
Description: Inhibition of human PKC-epsilon assessed as residual activity at 1 uM relative to control.

Test [11] deals with Tyrosine-protein kinase receptor UFO (Homo sapiens) (UniProt P30530). The experiment in a line: Inhibition of human AXL assessed as residual activity at 1 uM relative to control.
In test [12] the target is Vascular endothelial growth factor receptor 1 (Homo sapiens) (UniProt P17948). Description: Inhibition of human FLT1 assessed as residual activity at 1 uM relative to control.
The target of test [13] is Serine/threonine-protein kinase MARK2 (Homo sapiens) (UniProt Q7KZI7). Description: Inhibition of human PAR-1Balpha assessed as residual activity at 1 uM relative to control.
In test [14] the target is Insulin-like growth factor 1 receptor (Homo sapiens) (UniProt P08069). The experiment in a line: Inhibition of human IGF-1R assessed as residual activity at 1 uM relative to control.
In test [15] the target is Tyrosine-protein kinase BTK (Homo sapiens) (UniProt Q06187). Description: Inhibition of human BTK assessed as residual activity at 1 uM relative to control.

Sequence of Tyrosine-protein kinase receptor UFO (Homo sapiens) (P30530 whole entry): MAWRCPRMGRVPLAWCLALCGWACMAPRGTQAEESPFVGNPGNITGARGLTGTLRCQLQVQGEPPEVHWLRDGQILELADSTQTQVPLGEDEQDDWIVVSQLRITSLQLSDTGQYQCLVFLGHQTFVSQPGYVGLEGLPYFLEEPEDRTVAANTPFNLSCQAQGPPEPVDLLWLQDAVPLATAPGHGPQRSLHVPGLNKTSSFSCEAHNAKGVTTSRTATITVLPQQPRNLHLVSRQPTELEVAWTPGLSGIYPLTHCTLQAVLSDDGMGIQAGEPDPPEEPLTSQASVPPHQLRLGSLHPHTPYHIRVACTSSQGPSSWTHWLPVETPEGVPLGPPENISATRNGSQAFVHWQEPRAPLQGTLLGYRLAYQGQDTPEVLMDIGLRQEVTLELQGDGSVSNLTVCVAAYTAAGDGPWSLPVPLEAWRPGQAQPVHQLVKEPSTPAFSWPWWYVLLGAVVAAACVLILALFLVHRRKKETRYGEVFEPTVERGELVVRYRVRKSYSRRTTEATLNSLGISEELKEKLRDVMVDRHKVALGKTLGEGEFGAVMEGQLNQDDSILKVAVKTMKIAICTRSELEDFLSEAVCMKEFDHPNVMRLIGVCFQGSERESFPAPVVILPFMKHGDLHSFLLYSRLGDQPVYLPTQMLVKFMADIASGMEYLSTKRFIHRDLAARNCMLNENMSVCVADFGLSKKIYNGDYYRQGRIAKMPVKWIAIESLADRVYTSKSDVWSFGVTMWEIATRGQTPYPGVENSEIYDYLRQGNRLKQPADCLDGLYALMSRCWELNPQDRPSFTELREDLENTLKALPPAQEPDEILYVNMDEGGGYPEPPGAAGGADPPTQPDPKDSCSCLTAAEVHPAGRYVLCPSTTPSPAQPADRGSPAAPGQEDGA
Sequence of Macrophage-stimulating protein receptor (Homo sapiens) (Q04912 25-304 limits assumed): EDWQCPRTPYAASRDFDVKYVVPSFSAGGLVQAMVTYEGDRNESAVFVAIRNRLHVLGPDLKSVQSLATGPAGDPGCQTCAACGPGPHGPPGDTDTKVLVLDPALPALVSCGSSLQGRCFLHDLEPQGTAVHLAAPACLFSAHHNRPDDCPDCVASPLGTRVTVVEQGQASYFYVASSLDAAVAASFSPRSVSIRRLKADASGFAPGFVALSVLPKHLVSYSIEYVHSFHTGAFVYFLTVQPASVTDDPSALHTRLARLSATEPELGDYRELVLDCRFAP
Sequence of Macrophage-stimulating protein receptor (Homo sapiens) (Q04912 310-1400 limits assumed): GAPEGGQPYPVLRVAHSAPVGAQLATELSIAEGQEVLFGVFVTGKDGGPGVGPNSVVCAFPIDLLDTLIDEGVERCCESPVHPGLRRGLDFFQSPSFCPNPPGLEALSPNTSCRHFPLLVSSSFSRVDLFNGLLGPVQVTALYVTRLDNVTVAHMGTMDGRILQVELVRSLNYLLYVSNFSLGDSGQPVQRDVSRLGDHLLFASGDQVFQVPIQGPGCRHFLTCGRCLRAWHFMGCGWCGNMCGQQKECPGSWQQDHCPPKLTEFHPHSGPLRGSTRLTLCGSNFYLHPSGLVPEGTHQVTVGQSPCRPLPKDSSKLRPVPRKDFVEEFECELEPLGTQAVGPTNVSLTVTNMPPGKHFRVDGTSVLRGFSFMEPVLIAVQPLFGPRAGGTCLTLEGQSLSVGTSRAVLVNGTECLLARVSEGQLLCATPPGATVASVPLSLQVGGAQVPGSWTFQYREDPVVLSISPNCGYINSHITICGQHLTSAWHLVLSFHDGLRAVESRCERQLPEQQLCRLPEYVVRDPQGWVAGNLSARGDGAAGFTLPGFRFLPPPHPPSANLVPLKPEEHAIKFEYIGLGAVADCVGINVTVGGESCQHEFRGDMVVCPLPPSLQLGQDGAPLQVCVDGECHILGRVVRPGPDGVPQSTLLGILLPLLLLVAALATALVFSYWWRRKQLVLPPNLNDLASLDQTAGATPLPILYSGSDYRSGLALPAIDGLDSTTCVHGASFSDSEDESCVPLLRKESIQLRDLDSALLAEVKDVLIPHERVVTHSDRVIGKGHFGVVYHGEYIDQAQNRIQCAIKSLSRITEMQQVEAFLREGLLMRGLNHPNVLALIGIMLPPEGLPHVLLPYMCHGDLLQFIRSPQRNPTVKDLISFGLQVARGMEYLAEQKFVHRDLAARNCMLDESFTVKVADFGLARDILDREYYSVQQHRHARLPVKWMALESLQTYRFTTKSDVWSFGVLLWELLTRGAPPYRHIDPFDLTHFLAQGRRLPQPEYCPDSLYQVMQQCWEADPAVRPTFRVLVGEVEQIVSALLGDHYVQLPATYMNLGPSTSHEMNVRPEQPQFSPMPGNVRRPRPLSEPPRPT
Sequence of Phosphatidylinositol 4-phosphate 5-kinase type-1 alpha (Homo sapiens) (Q99755 whole entry): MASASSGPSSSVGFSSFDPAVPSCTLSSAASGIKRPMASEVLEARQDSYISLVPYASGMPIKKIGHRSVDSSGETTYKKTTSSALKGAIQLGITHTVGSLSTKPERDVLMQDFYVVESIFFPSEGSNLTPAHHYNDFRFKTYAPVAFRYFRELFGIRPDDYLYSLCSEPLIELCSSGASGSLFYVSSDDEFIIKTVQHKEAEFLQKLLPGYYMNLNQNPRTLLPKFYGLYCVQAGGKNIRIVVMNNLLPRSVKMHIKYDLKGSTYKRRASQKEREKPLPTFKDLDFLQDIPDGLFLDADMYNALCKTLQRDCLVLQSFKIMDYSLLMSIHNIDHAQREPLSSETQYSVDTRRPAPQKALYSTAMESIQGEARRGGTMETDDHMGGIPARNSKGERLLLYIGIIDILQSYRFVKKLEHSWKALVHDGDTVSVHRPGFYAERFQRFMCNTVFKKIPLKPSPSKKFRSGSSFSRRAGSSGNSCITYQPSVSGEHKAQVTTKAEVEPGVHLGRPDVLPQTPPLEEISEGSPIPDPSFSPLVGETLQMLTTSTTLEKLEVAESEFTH
Sequence of Calcium/calmodulin-dependent protein kinase type 1 (Homo sapiens) (Q14012 whole entry, looked up): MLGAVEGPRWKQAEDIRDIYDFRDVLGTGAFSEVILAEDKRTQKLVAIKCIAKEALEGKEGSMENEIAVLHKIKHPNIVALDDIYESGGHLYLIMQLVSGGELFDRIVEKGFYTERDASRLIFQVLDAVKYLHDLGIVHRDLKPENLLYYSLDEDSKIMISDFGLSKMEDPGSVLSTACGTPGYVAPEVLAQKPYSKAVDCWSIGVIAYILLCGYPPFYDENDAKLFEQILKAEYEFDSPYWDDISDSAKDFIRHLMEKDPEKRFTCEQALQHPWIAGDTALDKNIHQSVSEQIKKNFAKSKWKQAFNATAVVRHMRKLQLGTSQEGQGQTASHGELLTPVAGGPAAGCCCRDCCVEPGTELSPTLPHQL
Sequence of Phosphatidylinositol 4,5-bisphosphate 3-kinase catalytic subunit gamma isoform (Homo sapiens) (P48736 whole entry, looked up, canonical isoform): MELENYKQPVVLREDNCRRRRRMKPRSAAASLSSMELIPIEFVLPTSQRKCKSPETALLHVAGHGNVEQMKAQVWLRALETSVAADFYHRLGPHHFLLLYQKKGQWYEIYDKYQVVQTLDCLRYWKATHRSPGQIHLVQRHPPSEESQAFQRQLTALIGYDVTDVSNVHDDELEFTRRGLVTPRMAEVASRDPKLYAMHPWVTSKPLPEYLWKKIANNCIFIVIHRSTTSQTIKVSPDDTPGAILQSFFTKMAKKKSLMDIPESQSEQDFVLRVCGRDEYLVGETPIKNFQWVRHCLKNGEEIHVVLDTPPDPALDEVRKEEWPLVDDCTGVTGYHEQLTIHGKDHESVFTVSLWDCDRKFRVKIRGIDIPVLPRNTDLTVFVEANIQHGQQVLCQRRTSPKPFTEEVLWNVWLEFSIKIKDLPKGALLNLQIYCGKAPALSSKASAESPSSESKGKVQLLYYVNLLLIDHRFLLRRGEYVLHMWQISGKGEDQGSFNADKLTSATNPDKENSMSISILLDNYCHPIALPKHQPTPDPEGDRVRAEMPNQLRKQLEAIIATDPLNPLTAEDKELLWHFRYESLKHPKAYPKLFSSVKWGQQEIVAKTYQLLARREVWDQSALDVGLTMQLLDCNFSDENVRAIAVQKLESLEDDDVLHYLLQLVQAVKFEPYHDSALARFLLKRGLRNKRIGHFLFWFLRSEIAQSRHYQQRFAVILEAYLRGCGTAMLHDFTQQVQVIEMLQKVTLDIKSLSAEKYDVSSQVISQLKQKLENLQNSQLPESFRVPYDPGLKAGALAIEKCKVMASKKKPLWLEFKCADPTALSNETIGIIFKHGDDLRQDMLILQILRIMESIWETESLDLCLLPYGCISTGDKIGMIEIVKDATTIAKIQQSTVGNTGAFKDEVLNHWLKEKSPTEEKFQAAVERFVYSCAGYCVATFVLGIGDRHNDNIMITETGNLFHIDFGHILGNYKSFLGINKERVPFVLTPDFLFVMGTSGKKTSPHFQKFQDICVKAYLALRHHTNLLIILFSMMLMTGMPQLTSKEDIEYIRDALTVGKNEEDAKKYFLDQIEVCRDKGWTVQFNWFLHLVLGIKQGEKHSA
Sequence of 5'-AMP-activated protein kinase catalytic subunit alpha-2 (Homo sapiens) (P54646 whole entry, looked up): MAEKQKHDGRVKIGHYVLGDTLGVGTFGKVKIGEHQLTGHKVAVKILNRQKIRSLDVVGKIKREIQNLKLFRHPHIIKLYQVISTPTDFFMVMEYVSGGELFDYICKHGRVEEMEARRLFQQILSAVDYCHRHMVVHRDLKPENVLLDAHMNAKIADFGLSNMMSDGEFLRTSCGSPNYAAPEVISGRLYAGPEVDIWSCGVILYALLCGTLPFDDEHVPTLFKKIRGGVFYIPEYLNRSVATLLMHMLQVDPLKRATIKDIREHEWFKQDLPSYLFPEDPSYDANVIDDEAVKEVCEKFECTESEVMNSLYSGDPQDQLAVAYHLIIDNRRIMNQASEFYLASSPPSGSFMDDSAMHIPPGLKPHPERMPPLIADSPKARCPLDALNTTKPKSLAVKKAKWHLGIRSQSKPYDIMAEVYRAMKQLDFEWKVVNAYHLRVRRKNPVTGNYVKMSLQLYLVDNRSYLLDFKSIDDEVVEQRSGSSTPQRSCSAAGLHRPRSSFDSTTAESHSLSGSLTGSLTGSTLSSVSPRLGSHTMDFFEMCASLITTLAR

In the case of `COc1ccc(-c2nc3cc(-c4csc(C(=O)NCC(C)(C)C)c4)cnc3[nH]2)cc1`, the Activity worked out at 74% in [1]; 85% in test [2]; 97% in [3]; 95% in [4]; 122% in test [5]; 95% in [6]. Besides, the Activity was 46% in test [7]; 81% in [8]; 101% in [9]; 90% in [10]; 103% in test [11]; 24% in test [12]. Also, the values for the Activity in test [13], in test [14] and in test [15] were 67%, 98% and 100%, respectively.

Consider `COc1ccc(-c2nc3cc(-c4csc(C(=O)NCCC(C)C)c4)cnc3[nH]2)cc1`, for which the Activity turned out to be 59% in test [1]; 90% in test [2]; 83% in [3]; 99% in test [4]; 132% in [5]; 106% in [6]. Further, the Activity stood at 42% in [7]; 81% in test [8]; 88% in [9]; 85% in [10]; 98% in [11]; 22% in test [12]. Also, the results for the Activity in test [13], in test [14] and in test [15] were 54%, 105% and 93%, respectively.

`COc1ccc(-c2nc3cc(-c4csc(C(=O)NCC(C)C)c4)cnc3[nH]2)cc1`: the Activity in test [1] was determined as 91%; in [2] it was 86%; in test [3], 102%; in [4], 99%; in test [5], 128%; in test [6] it was 100%. Further, the Activity in [7] was found to be 28%; in [8], 75%; in test [9], 99%; in [10], 96%; in [11], 98%; in test [12], 10%. Besides, the Activity in test [13] is 52%; in [14], 108%; in test [15], 112%.
